# Activity calls are given as the source filed them. The rule behind the calls is not given here.
# Test system: rodent carcinogenicity bioassays, tumor incidence
# Assay: CCRIS carcinogenicity studies
# Details: Dose: 0, Dose: 0
# Method in brief: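 NCI-built, expert-reviewed records of carcinogenicity and related test outcomes (mutagenicity, tumor promotion/inhibition) compiled from published and report sources, historical span 1985-2011, not updated.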
smiles,measurement,setting,value
Cc1cc(Cl)ccc1OC(C)C(=O)O (centres undefined),carcinogen call,"Species: Mouse, Strain/Sex: B6C3F1/CrlBR/Female (50/Group), Route: Oral, 25, 250 ppm of 92.7% mecoprop in diet for 18 mo, study duration 18 mo, 25, 250 ppm of 92.7% mecoprop in diet for 18 mo, study duration 18 mo",inactive; negative
same,carcinogen call,"Species: Mouse, Strain/Sex: B6C3F1/CrlBR/Male (50/Group), Route: Oral, 25, 250 ppm of 92.7% mecoprop in diet for 18 mo, study duration 18 mo, 25, 250 ppm of 92.7% mecoprop in diet for 18 mo, study duration 18 mo, Tumor Site: Type of Lesion: Lung: carcinoma",active; positive
same,carcinogen call,"Species: Rat, Strain/Sex: Wistar/Female (65/Group), Route: Oral, 20, 100, 400 ppm of 92.7% mecoprop in diet for 24 mo, study duration 24 mo, 20, 100, 400 ppm of 92.7% mecoprop in diet for 24 mo, study duration 24 mo",inactive; negative
same,carcinogen call,"Species: Rat, Strain/Sex: Wistar/Male (65/Group), Route: Oral, 20, 100, 400 ppm of 92.7% mecoprop in diet for 24 mo, study duration 24 mo, 20, 100, 400 ppm of 92.7% mecoprop in diet for 24 mo, study duration 24 mo",inactive; negative
O.O=S(=O)([O-])[O-].[Mn+2],carcinogen call,"Species: MOUSE, Strain/Sex: B6C3F1/FEMALE, Route: ORAL, 1500, 5000, 15000 PPM IN DIET (0; 60; 200; 615 MG/KG/D) FOR 105 WK (STUDY DURATION: 105 WK), 1500, 5000, 15000 PPM IN DIET (0; 60; 200; 615 MG/KG/D) FOR 105 WK (STUDY DURATION: 105 WK), Tumor Site: Type of Lesion: THYROID GLAND (FOLLICULAR CELL): ADENOMA",equivocal
same,carcinogen call,"Species: MOUSE, Strain/Sex: B6C3F1/MALE, Route: ORAL, 1500, 5000, 15000 PPM IN DIET (0; 60; 200; 615 MG/KG/D) FOR 105 WK (STUDY DURATION: 105 WK), 1500, 5000, 15000 PPM IN DIET (0; 60; 200; 615 MG/KG/D) FOR 105 WK (STUDY DURATION: 105 WK), Tumor Site: Type of Lesion: THYROID GLAND (FOLLICULAR CELL): ADENOMA",equivocal
same,carcinogen call,"Species: RAT, Strain/Sex: F344/FEMALE, Route: ORAL, 1500, 5000, 15000 PPM IN DIET (0; 70; 230; 715 MG/KG/D) FOR 2 YR (STUDY DURATION: 2 YR), 1500, 5000, 15000 PPM IN DIET (0; 70; 230; 715 MG/KG/D) FOR 2 YR (STUDY DURATION: 2 YR)",inactive; negative
same,carcinogen call,"Species: RAT, Strain/Sex: F344/MALE, Route: ORAL, 1500, 5000, 15000 PPM IN DIET (0; 60; 200; 615 MG/KG/D) FOR 2 YR (STUDY DURATION: 2 YR), 1500, 5000, 15000 PPM IN DIET (0; 60; 200; 615 MG/KG/D) FOR 2 YR (STUDY DURATION: 2 YR)",inactive; negative
CCCCC(CC)COC(=O)c1ccc(C(=O)OCC(CC)CCCC)cc1 (centres undefined),carcinogen call,"Species: Rat, Strain/Sex: Fischer 344/Female, Route: Oral, 1500, 6000, 12,000 ppm in diet for 104 wk (average daily dose 0, 102, 418, 901 mg/kg/day), 1500, 6000, 12,000 ppm in diet for 104 wk (average daily dose 0, 102, 418, 901 mg/kg/day)",inactive; negative
same,carcinogen call,"Species: Rat, Strain/Sex: Fischer 344/Male, Route: Oral, 1500, 6000, 12,000 ppm in diet for 104 wk (average daily dose 0, 79, 324, 666 mg/kg/day), 1500, 6000, 12,000 ppm in diet for 104 wk (average daily dose 0, 79, 324, 666 mg/kg/day)",inactive; negative
C=CC(=O)NCO,carcinogen call,"Species: MOUSE, Strain/Sex: B6C3F1/FEMALE, Route: GAVAGE, 25, 50 MG/KG IN DEIONIZED WATER 5 D/WK FOR 103 WK (STUDY DURATION: 105 WK), 25, 50 MG/KG IN DEIONIZED WATER 5 D/WK FOR 103 WK (STUDY DURATION: 105 WK), Tumor Site: Type of Lesion: HARDERIAN GLAND: ADENOMA, ADENOMA OR CARCINOMA, LIVER: HEPATOCELLULAR ADENOMA, HEPATOCELLULAR ADENOMA OR CARCINOMA, LUNG, Tumor Site: Type of Lesion: HARDERIAN GLAND: ADENOMA, ADENOMA OR CARCINOMA, LIVER: HEPATOCELLULAR ADENOMA, HEPATOCELLULAR ADENOMA OR CARCINOMA, LUNG",active; positive
same,carcinogen call,"Species: MOUSE, Strain/Sex: B6C3F1/MALE, Route: GAVAGE, 25, 50 MG/KG IN DEIONIZED WATER 5 D/WK FOR 103 WK (STUDY DURATION: 105 WK), 25, 50 MG/KG IN DEIONIZED WATER 5 D/WK FOR 103 WK (STUDY DURATION: 105 WK), Tumor Site: Type of Lesion: HARDERIAN GLAND: ADENOMA, ADENOMA OR CARCINOMA, LIVER: HEPATOCELLULAR ADENOMA, HEPATOCELLULAR CARCINOMA, LUNG: ALVEOLAR/, Tumor Site: Type of Lesion: HARDERIAN GLAND: ADENOMA, ADENOMA OR CARCINOMA, LIVER: HEPATOCELLULAR ADENOMA, HEPATOCELLULAR CARCINOMA, LUNG: ALVEOLAR/",active; positive
same,carcinogen call,"Species: RAT, Strain/Sex: F344/FEMALE, Route: GAVAGE, 6, 12 MG/KG IN DEIONIZED WATER 5 D/WK FOR 103 WK (STUDY DURATION: 105 WK), 6, 12 MG/KG IN DEIONIZED WATER 5 D/WK FOR 103 WK (STUDY DURATION: 105 WK)",inactive; negative
same,carcinogen call,"Species: RAT, Strain/Sex: F344/MALE, Route: GAVAGE, 6, 12 MG/KG IN DEIONIZED WATER 5 D/WK FOR 103 WK (STUDY DURATION: 105 WK), 6, 12 MG/KG IN DEIONIZED WATER 5 D/WK FOR 103 WK (STUDY DURATION: 105 WK)",inactive; negative

# — PubChem BioAssay AID1259411 (Chemical Carcinogenesis Research Information System (CCRIS), 2018)
